Assay results as given in publication PMC4635503, “High-affinity nitrate/nitrite transporters NrtA and NrtB of Aspergillus nidulans exhibit high specificity and different inhibitor sensitivity” (Microbiology, 2015).
≈ marks a conversion by molar mass, not a printed value. Where “and” joins values, the source holds several entries; their conditions need not be identical. Equal values may be shown once. Read-outs that look alike come from different tables or passages of the source.

Tests used:
[1] = test system: NrtB; format: cell-based, Aspergillus nidulans; conditions: for Nitrate uptake ± SE: nrtA747 (NrtB); for nature of inhibition of nitrate transport (Lineweaver–Burk): NrtB (expressed in nrtA1); for Ki: inhibitor concentration reducing net nitrate uptake rate by 50 % of control
Method: (§1) These were performed on cultures grown in liquid AMM with 5 mM urea as nitrogen source for a total of 6.5 h at 37 °C ([Brownlee & Arst, 1983]). Urea was used as it (i) is a neutral nitrogen source, neither inducing nor repressing nitrate transport, (ii) has been used routinely in the past and (iii) permitted direct comparison with previously published results. […] Transporter activity was induced by the addition of 10 mM sodium nitrate 100 min prior to assay as described previously ([Brownlee & Arst, 1983]). Assays were carried out in triplicate, generally at pH 6.5, on three independently grown cultures for each strain and expressed as nmol nitrate removed from the medium min^ − 1 (mg dried mycelium)^ − 1, as discussed before ([Brownlee & Arst, 1983]; [Kinghorn et al., 2005]; [Unkles et al., 2012]). Both carbonic acid and bicarbonate chemical species can occur at pH 6.5. Thus potential inhibition of nitrate transport by carbonic acid/bicarbonate was tested at pH 6.5 and bicarbonate at pH 8.3.
(§2) To effectively assess net uptake, it is necessary that any export, i.e. simultaneous transport in the reverse direction, is minimal.
(§3) Values of K m and V max were calculated by linear regression of Lineweaver–Burk analyses (1/v against 1/s, where v is net uptake and s is substrate concentration). The kinetic values of nitrate transport by the WT and mutants were compared with those from a previous report ([Unkles et al., 2001]). […] Therefore the kinetic values in the absence of inhibitors from the present study were used as control values. Each K i value was determined by regression of the rates of net nitrate uptake transport versus the range of concentrations of a particular inhibitor: linear or nonlinear regression was used, depending on which type provided the highest r ^2 value. Calculated from each regression was the concentration of the inhibitor that reduced net nitrate uptake rate by 50 % of the control (without inhibitor) rate, which was assessed as the K i value. Lineweaver–Burk analyses were carried out to determine the nature of the inhibition of nitrate transport for each inhibitor.

[2] = test system: A. nidulans WT and mutant strains; format: cell-based, Aspergillus nidulans; conditions: for growth stunting on solid AMM: up to 100 mM, 1 mM nitrate (or proline) as sole nitrogen source, data not shown
Method: (§4) Fungal growth tests were carried out in standard Petri dishes containing defined Aspergillus minimal medium (AMM) agar ([Cove, 1976]), with sodium nitrate or proline as the sole nitrogen source, at 1 or 10 mM concentration. Strains were tested for inhibition by bicarbonate, formate, oxalate, chlorite, sulphite (all purchased as the sodium salt), chlorate (potassium salt), malonate (acid form) or caesium (chloride salt). Stock aqueous solutions of inhibitors were adjusted to pH 6.5 and prepared immediately before use. It should be noted that at pH 6.5, bicarbonate is in approximately 50 % equilibrium with carbonic acid. […] Cultures were incubated routinely at 37 °C for 48 h, and the growth response was scored.
(§5) Each treatment was carried out in five replicates. […] As caesium was utilized as a chloride salt, a control for potential inhibition by chloride was assessed, by growth on 100 mM sodium chloride (Fig. 4).
Unlike chlorate, commercial chemical supplies of chlorite typically contain a relatively high percentage (20 %) of contaminants. […] The pH of this solution was adjusted to 6.5 and aliquots incorporated into solid AMM (with nitrate or proline as the nitrogen source) at final concentrations equivalent to those that would be present in agar medium containing 10 mM chlorite (i.e. 1.56 mM sodium chloride, 0.28 mM sodium chlorate, 0.68 mM sodium hydroxide and 0.17 mM sodium carbonate).

[3] = target: T1, NrtA (Emericella nidulans, UniProt P22152); experiment: cell-based; design: mutant nrtB110 (expressing a functional NrtA); endogenous in cells; host or cells: Aspergillus nidulans mycelium, knockout strain nrtB110, nitrate-induced; species or system Aspergillus nidulans; conditions: for nature of inhibition of nitrate transport (Lineweaver–Burk): NrtA (expressed in nrtB110)
T1 sequence (P22152 whole entry): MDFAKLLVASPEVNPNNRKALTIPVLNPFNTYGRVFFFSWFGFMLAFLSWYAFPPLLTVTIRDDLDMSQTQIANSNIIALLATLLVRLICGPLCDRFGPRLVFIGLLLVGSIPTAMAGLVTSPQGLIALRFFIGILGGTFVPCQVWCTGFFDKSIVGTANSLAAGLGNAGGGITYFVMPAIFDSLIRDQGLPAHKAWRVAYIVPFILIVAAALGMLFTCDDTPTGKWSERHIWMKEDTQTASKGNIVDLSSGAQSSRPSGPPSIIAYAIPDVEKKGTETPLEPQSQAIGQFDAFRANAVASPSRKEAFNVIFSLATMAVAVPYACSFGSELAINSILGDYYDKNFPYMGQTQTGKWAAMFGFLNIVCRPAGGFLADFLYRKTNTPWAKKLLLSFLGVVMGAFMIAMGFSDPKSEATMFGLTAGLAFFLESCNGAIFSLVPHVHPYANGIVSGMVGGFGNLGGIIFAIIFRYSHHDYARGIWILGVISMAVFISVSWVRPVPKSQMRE
Method: as §1, §2, §3

[4] = test system: nitrate transport by NrtA and NrtB; experiment: Net nitrate transport inhibition assays, strain not specified; format: cell-based, Aspergillus nidulans; conditions: net nitrate transport inhibition assays (Tables 3 and 4)
Method: as §1, §2

[5] = test system: A. nidulans WT strain (NrtA, NrtB); experiment: MIC growth test on solid AMM, WT strain; format: cell-based, Aspergillus nidulans
Method: as §4, §5

[6] = test system: A. nidulans mutant nrtB110 (functional NrtA); experiment: microbe, parasite or virus in culture; format: cell-based, Aspergillus nidulans
Method: as §4, §5

[7] = test system: A. nidulans double mutant tbl110 (nrtA747 nrtB110, neither transporter); experiment: microbe, parasite or virus in culture; format: cell-based, Aspergillus nidulans; conditions: T110 (neither transporter)
Method: as §4, §5

[8] = test system: A. nidulans mutant nrtA1 (functional NrtB); experiment: microbe, parasite or virus in culture; format: cell-based, Aspergillus nidulans
Method: as §4, §5

[9] = target: NrtA, NrtB (WT strain); experiment: Net nitrate uptake assay and kinetics, WT strain; format: cell-based, Aspergillus nidulans; conditions: mean ± SE; for Ki: WT (NrtA, NrtB), inhibitor concentration reducing net nitrate uptake rate by 50 % of control
Method: as §1, §2, §3

[10] = target: T1, NrtA; conditions: cited from earlier work
[11] = test system: A. nidulans WT strain; conditions: ref Wang et al., 2007; cited from earlier work
[12] = test system: NrtB; conditions: cited from earlier work
[13] = Aspergillus nidulans, 1 mM proline as sole nitrogen source
[14] = Aspergillus nidulans, 10 mM nitrate as sole nitrogen source
[15] = Aspergillus nidulans, 10 mM proline as sole nitrogen source
[16] = nrtB110 (NrtA), 1 mM nitrate as sole nitrogen source
[17] = nrtB110 (NrtA), 1 mM proline as sole nitrogen source
[18] = nrtB110 (NrtA), 10 mM nitrate as sole nitrogen source
[19] = nrtB110 (NrtA), 10 mM proline as sole nitrogen source
[20] = pH 6.5, in presence of the anion, control without anion 2.9 ± 0.1
[21] = nrtB110 (NrtA), pH 6.5, in presence of the anion, control without anion 10.6 ± 1.4
[22] = 1 mM proline as sole nitrogen source
[23] = 10 mM nitrate as sole nitrogen source
[24] = 10 mM proline as sole nitrogen source
[25] = nitrate transport, nrtA1 (NrtB), no inhibitor, mean ± SE
[26] = nitrate transport, nrtB110 (NrtA), no inhibitor, mean ± SE
[27] = nitrate transport, WT, no inhibitor

For O=C(O)O [Bicarbonate, bicarbonate], the “Nitrate uptake ± SE” value ([1]; pH 8.3, in presence of the anion, control without anion 1.9 ± 0.7) was 1.9 ± 0.3 nmol NO3 min^− 1 mg^− 1, the “growth stunting on solid AMM” value [2] was “no convincing phenotypic evidence of growth stunting” and the “Nitrate uptake ± SE” value ([3]; nrtB110 (NrtA), pH 8.3, in presence of the anion, control without anion 0.7 ± 0.4) was 0.5 ± 0.7 nmol NO3 min^− 1 mg^− 1. For the same molecule, the “inhibition of nitrate transport / uptake” value [4] was “did not inhibit growth or nitrate uptake”.

With [Cs+] [Caesium, caesium] the “nature of inhibition of nitrate transport (Lineweaver–Burk)” value (from here on “nature of inhibition … (Lineweaver–Burk)”) [1] was “uncompetitive”, the “nature of inhibition … (Lineweaver–Burk)” value ([1]; listed as caesium) was “uncompetitive inhibition” and the Ki ([1]; nrtA1 (NrtB), mean ± SE) was 2.6 ± 0.02 mM. It also gave a Ki ([1]; nrtA1 (NrtB), mean ± SE, listed as caesium) of ~3 mM, an MIC ([5]; Aspergillus nidulans, 1 mM nitrate as sole nitrogen source, solid AMM, 37 °C) of 100 mM and an MIC [5, 13] of 80 mM. The MIC [5, 14] was > 100 mM, the MIC [5, 15] was 60 mM and the Ki ([3]; K i, nrtB110 (NrtA), inhibitor concentration reducing net nitrate uptake rate by 50 % of control, mean ± SE) was 55 mM and 54.8 mM. The “nature of inhibition … (Lineweaver–Burk)” value [3] was “non-competitive inhibitor”, the “nature of inhibition … (Lineweaver–Burk)” value ([3]; listed as caesium) was “non-competitive inhibition” and the MIC ([6]; Aspergillus nidulans) was > 100 mM. The MIC [6, 16] was >100 mM, the MIC [6, 17] was >100 mM and the MIC [6, 18] was >100 mM. The MIC [6, 19] was >100 mM, the MIC [7, 13] was 100 mM and the MIC [7, 15] was > 100 mM. The MIC ([8]; Aspergillus nidulans, 1 mM nitrate as sole nitrogen source) was 40 mM, the MIC [8, 13] was 80 mM and the MIC [8, 14] was 30 mM. For the same molecule, the MIC [8, 15] was 60 mM, the Ki [9] was 45.1 ± 6.1 mM and the Ki ([9]; listed as caesium) was 45 mM.

In the case of O=CO [Formate], the “Nitrate uptake ± SE” value [1, 20] is reported as 2.7 ± 0.1 nmol NO3 min^− 1 mg^− 1, the “growth stunting on solid AMM” value [2] is reported as “no convincing phenotypic evidence of growth stunting” and the “Nitrate uptake ± SE” value [3, 21] is reported as 8.1 ± 0.4 nmol NO3 min^− 1 mg^− 1. The “inhibition of nitrate transport / uptake” value [4] was “did not inhibit growth or nitrate uptake”.

In the case of O=C(O)CC(=O)O [Malonate, malonate], the “Nitrate uptake ± SE” value [1, 20] is reported as 2.7 ± 0.2 nmol NO3 min^− 1 mg^− 1, the “growth stunting on solid AMM” value [2] is reported as “no convincing phenotypic evidence of growth stunting” and the “inhibition of nitrate transport / uptake” value [4] is reported as “did not inhibit growth or nitrate uptake”.

With O=C(O)C(=O)O [Oxalate] the “Nitrate uptake ± SE” value [1, 20] was 2.4 ± 0.1 nmol NO3 min^− 1 mg^− 1, the “growth stunting on solid AMM” value [2] was “no convincing phenotypic evidence of growth stunting” and the “Nitrate uptake ± SE” value [3, 21] was 9.7 ± 0.4 nmol NO3 min^− 1 mg^− 1. The “inhibition of nitrate transport / uptake” value [4] was “did not inhibit growth or nitrate uptake”.

In the case of O=S(O)O [Sulphite, sulphite], the MIC ([5]; 1 mM nitrate as sole nitrogen source, solid AMM, 37 °C) is reported as 15 mM (≈ 1230 µg/mL), the MIC [5, 22] is reported as 15 mM (≈ 1230 µg/mL) and the MIC [5, 23] is reported as 15 mM (≈ 1230 µg/mL). The MIC [5, 24] was >25 mM, the “concentration at which growth ceased” value ([2]; media with 10 mM nitrate) was 15 mM and the “concentration at which growth ceased” value ([2]; media with 10 mM proline) was > 25 mM. For the same molecule, the “concentration at which growth ceased” value ([2]; media with either 1 mM nitrate or proline) was 15 mM, the MIC [6, 16] was 15 mM (≈ 1230 µg/mL) and the MIC [6, 17] was 15 mM (≈ 1230 µg/mL). For the same molecule, the MIC [6, 18] was 15 mM (≈ 1230 µg/mL), the MIC [6, 19] was >25 mM and the MIC [7, 22] was 15 mM (≈ 1230 µg/mL). For the same molecule, the MIC [7, 24] was >25 mM, the MIC ([8]; 1 mM nitrate as sole nitrogen source) was 15 mM (≈ 1230 µg/mL) and the MIC [8, 22] was 15 mM (≈ 1230 µg/mL). The MIC [8, 23] was 15 mM (≈ 1230 µg/mL) and the MIC [8, 24] was >25 mM.

For O=[N+]([O-])O [nitrate], the “K m for nitrate” value ([10]; ref Unkles et al., 2001) is listed as 0.096 mM, the K m [1, 25] is listed as 0.0114 ± 0.0024 mM and the V max [1, 25] is listed as 3.6 ± 0.2. For the same molecule, the “rate of nitrate efflux as % of influx” value [11] was 8%, the “K m for nitrate” value ([12]; ref Unkles et al., 2001) was 0.011 mM and the K m [3, 26] was 0.041 ± 0.0048 mM. It also gave a V max [3, 26] of 9.1 ± 0.8, a K m [9, 27] of 0.0571 ± 0.0026 mM and a V max [9, 27] of 14.2 ± 0.8.

For O=NO [nitrite], the “K m for nitrite” value ([10]; ref Wang et al., 2008) is listed as 0.016 mM and the “K m for nitrite” value ([12]; ref Wang et al., 2008) is listed as 0.011 mM.

With [Cl-].[Na+] [sodium chloride] the effect on growth ([2]; 100 mM sodium chloride, control for chloride) was “no effect on growth”.

With Carbonic acid/bicarbonate the “Nitrate uptake ± SE” value [1, 20] was 2.7 ± 0.1 nmol NO3 min^− 1 mg^− 1, the “growth stunting on solid AMM” value [2] was “no convincing phenotypic evidence of growth stunting” and the “Nitrate uptake ± SE” value [3, 21] was 11.1 ± 0.4 nmol NO3 min^− 1 mg^− 1.
